The record followed here is patent publication US20230406865A1, “CRYSTAL FORM OF FREE BASE OF INHIBITOR CONTAINING BICYCLIC RING DERIVATIVE AND PREPARATION METHOD AND APPLICATION OF CRYSTAL FORM” (SHANGHAI HANSOH BIOMEDICAL CO., LTD., priority 2020, published 2023).

One experiment addresses T1, RET M918T (Homo sapiens, UniProt P07949, M918T).
T1 construct: purchased Carna 08-508
The experiment is described as follows: HTRF kinase activity inhibition, RET M918T. Format: biochemical. To be noted: ATP at Km. An excerpt: (§1) 2.2 Experimental Reagents: • RET enzyme was purchased from Carna Company, and the article number was 08-159; • RET M918T enzyme was purchased from Carna Company, and the article number was 08-508; • KIF5B-RET was purchased from SignalChem Company, the article number was R02-19FG-05; • CCDC6-RET was purchased from SignalChem Company, the article number was R02-19BG-05; • RET V804M enzyme was purchased from Thermofisher Company, and the article number was PV6223; • RET V804L enzyme was purchased from Thermofisher Company, and the article number was PV4397; • HTRF KinEASE-TK kit was purchased from Cisbio Company, and the article number was 62TK0PEC; • ATP was purchased from Thermofisher Company, and the article number was PV3227; • 384-well plate was purchased from PerkinElmer Company, and the article number was 6007290.
(§2) In this experiment, a homogeneous time-resolved fluorescence (HTRF) method was used for the detection of compounds on RET kinase activity.
(In general: Time-resolved FRET reads energy transfer from a long-lived donor to a nearby acceptor.)

Another experiment deals with T2, KIF5B-RET (Homo sapiens, UniProt P07949).
T2 construct: purchased SignalChem R02-19FG-05; the other entry of the earlier key: KIF5B (P33176, Kinesin-1 heavy chain)
T2 sequence (P07949 with tags, fused parts or gaps): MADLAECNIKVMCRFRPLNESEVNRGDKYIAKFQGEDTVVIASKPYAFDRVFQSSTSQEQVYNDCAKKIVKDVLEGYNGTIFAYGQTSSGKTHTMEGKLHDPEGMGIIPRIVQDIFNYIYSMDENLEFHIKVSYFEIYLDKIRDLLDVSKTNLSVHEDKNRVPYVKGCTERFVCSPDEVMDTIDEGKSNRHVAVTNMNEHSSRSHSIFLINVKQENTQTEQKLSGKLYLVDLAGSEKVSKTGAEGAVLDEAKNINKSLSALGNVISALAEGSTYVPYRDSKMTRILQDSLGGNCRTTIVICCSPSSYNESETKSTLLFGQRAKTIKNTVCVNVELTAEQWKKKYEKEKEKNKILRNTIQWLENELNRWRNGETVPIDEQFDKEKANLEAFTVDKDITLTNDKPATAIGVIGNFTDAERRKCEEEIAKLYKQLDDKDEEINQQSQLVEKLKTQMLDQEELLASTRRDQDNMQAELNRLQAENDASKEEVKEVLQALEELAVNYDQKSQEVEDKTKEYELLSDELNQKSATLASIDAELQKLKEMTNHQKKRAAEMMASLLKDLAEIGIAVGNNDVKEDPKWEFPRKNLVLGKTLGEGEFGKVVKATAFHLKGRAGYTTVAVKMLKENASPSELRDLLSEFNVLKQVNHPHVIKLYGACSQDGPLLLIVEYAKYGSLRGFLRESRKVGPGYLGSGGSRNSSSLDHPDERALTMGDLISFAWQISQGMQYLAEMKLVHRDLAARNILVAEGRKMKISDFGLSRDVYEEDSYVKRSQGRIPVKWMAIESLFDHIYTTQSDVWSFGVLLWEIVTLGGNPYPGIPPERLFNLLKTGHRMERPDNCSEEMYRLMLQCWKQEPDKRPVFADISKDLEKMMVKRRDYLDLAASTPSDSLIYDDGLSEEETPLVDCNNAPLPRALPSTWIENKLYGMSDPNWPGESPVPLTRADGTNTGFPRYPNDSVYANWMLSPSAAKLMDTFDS
The experiment is described as follows: HTRF kinase activity inhibition, KIF5B-RET. Type of experiment: biochemical. To be noted: ATP at Km.
Excerpt: as §1, §2

Another experiment has as its target T3, RET V804M (Homo sapiens, UniProt P07949, V804M).
T3 construct: purchased Thermofisher PV6223
The experiment is described as follows: HTRF kinase activity inhibition, RET V804M. Format: biochemical. To be noted: ATP at Km.
Excerpt: as §1, §2

In the next experiment the target is T4, RET V804L (Homo sapiens, UniProt P07949, V804L).
T4 construct: purchased Thermofisher PV4397
The experiment is described as follows: HTRF kinase activity inhibition, RET V804L. Type of experiment: biochemical. The note with it: ATP at Km.
Excerpt: as §1, §2

A further experiment concerns the target T5, RET kinase (Homo sapiens, UniProt P07949).
T5 construct: purchased Carna 08-159
The experiment is described as follows: HTRF kinase activity inhibition, RET wild-type. Type of experiment: biochemical. To be noted: ATP at Km. In outline: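 HTRF (KinEASE-TK) kinase assay with recombinant RET wild-type, RET V804M, RET V804L and KIF5B-RET enzymes plus ATP.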

Another experiment deals with T6, KDR kinase (Homo sapiens, UniProt P35968).
T6 construct: purchased Carna 08-191
The experiment is described as follows: HTRF kinase activity inhibition, KDR. Type of experiment: biochemical. The note with it: for IC50: HTRF, ATP at Km; for Ratio (KDR/RET): KDR IC50 / RET IC50. In outline:
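Inhibition of KDR kinase activity measured by homogeneous time-resolved fluorescence with a tyrosine-kinase KinEASE substrate kit and ATP.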

The test system of experiment [1] is TT cells (MTC, RET C634W). The experiment is described as follows: Inhibition of proliferation of TT cells (CellTiter-Glo, 72 h). To be noted: Homo sapiens. Format: cell-based. The method, boiled down: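 TT cells seeded overnight, then exposed to compound dilutions for 72 h at 37 °C, 5% CO2, with a solvent control. Viability read by CellTiter-Glo luminescence; IC50 from nonlinear regression of inhibition rate versus concentration.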

Each structure is given as a SMILES string.

T1 sequence (P07949 29-1114 M918T): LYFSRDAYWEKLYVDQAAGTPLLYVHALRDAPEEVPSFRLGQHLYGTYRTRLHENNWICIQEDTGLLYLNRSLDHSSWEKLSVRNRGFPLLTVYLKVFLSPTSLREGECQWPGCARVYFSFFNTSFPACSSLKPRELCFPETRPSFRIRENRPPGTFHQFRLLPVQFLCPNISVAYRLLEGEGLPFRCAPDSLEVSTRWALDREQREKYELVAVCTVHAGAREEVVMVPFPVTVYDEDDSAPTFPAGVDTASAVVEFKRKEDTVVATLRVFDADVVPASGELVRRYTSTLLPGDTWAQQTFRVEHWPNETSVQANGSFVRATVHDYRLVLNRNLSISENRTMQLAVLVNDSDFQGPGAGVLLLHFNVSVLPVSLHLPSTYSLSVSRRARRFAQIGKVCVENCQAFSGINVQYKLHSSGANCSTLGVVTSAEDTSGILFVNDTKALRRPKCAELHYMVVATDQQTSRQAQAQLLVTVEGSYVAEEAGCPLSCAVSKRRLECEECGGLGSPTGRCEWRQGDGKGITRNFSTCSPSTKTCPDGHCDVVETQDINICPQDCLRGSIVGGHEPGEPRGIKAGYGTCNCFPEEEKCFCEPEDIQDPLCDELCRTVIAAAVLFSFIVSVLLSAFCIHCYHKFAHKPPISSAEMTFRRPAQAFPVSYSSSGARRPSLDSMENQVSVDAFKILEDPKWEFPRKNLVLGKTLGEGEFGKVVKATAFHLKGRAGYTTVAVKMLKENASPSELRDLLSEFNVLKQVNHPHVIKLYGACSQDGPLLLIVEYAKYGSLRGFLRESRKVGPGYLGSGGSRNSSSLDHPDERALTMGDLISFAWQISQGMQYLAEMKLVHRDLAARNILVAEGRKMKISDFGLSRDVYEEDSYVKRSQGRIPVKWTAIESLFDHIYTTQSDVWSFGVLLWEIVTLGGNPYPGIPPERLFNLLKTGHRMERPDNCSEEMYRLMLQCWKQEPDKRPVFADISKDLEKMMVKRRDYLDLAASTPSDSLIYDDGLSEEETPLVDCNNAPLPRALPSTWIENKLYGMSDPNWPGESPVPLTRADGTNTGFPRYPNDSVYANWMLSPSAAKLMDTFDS
T6 sequence (P35968 20-1356): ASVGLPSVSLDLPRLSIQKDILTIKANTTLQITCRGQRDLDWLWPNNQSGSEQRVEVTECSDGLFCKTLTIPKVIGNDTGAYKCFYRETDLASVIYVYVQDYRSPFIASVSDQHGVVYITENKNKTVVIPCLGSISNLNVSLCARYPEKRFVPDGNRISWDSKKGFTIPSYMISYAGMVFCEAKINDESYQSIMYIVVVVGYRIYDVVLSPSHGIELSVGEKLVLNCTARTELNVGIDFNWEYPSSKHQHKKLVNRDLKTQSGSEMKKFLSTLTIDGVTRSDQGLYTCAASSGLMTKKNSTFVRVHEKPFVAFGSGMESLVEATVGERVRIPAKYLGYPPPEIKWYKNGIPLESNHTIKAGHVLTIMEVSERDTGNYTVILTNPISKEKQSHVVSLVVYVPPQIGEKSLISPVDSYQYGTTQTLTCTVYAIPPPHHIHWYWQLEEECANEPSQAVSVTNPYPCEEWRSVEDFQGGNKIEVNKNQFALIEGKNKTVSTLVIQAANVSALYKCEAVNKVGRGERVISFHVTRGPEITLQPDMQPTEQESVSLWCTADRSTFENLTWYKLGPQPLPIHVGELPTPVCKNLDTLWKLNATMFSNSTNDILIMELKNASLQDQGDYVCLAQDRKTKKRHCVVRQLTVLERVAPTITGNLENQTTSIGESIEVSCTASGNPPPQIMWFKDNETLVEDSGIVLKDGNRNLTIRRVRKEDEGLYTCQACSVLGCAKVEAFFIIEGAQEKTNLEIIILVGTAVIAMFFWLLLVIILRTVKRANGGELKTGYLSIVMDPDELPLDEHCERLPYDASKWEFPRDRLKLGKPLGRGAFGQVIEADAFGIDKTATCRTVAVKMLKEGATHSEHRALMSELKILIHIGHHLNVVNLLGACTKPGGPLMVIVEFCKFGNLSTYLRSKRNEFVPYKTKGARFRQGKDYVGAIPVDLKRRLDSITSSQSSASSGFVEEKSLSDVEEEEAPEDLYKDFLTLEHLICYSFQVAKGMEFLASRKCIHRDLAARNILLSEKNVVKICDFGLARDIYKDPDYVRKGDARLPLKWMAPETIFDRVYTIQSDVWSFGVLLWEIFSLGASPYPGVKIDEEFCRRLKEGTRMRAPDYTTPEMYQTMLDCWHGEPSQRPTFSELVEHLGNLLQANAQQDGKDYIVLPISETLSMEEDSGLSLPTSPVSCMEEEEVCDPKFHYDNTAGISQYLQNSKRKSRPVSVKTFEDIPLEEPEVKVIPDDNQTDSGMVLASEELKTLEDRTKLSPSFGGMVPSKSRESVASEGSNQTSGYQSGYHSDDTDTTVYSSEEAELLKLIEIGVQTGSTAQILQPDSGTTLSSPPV
T3 sequence (P07949 29-1114 V804M): as the sequence (P07949 29-1114 M918T) above, with V776M, T890M counted along it
T4 sequence (P07949 29-1114 V804L): as the sequence (P07949 29-1114 M918T) above, with V776L, T890M counted along it
T5 sequence (P07949 29-1114): as the sequence (P07949 29-1114 M918T) above, with T890M counted along it

On to `C#C[C@@](C)(O)COc1cc(-c2ccc(N3CC4CC(C3)N4Cc3ccc(OC)nc3)nc2)c2c(C#N)cnn2c1` [Embodiment 63, 6-(((R)-2-hydroxy-2-methylbut-3-yn-1-yl)oxy)-4-(6-(6-((6-methoxypyridin-3-yl)methyl)-3,6-diazabicyclo[3.1.1]heptan-3-yl)pyridin-3-yl)pyrazolo[1,5-a]pyridine-3-carbonitrile], for which the IC50 (as a rule, the concentration needed to halve the response being measured) on RET M918T was 0.21 nM; against KIF5B-RET, 0.53 nM; against RET V804M it was 0.6 nM; against RET V804L, 0.24 nM; at RET kinase, 0.34 nM; against KDR kinase it was 21.7 nM. In experiment [1], the IC50 worked out at 14.1 nM. Further, the “Ratio (KDR/RET)” value on KDR kinase stood at 63.
Turning to `COc1ccc(CN2C3CC2CN(c2ccc(-c4cc(N5CC(C)(C#N)C5)cn5ncc(C#N)c45)cn2)C3)cn1` [Embodiment 77, 6-(3-Cyano-3-methylazetidin-1-yl)-4-(6-(6-((6-methoxypyridin-3-yl)methyl)-3,6-diazabicyclo[3.1.1]heptan-3-yl)pyridin-3-yl)pyrazolo[1,5-a]pyridine-3-carbonitrile], the half-inhibitory concentration (IC50) on RET M918T worked out at 0.41 nM; on KIF5B-RET it was 0.42 nM; against RET V804M, 0.6 nM; against RET V804L it was 0.49 nM; against RET kinase, 0.37 nM; at KDR kinase it was 6.9 nM. Further, the concentration for half-maximal inhibition (IC50) in experiment [1] came to 4.1 nM. Further, the “Ratio (KDR/RET)” value on KDR kinase is listed as 19.
With `C#C[C@](C)(O)COc1cc(-c2ccc(N3CC4CC(C3)N4Cc3ccc(OC)nc3)nc2)c2c(C#N)cnn2c1` [Embodiment 64, 6-(((S)-2-hydroxy-2-methylbut-3-yn-1-yl)oxy)-4-(6-(6-((6-methoxypyridin-3-yl)methyl)-3,6-diazabicyclo[3.1.1]heptan-3-yl)pyridin-3-yl)pyrazolo[1,5-a]pyridine-3-carbonitrile], the concentration for half-maximal inhibition (IC50) against RET M918T came to 0.17 nM; at KIF5B-RET, 0.36 nM; at RET V804M it was 3 nM; on RET V804L it was 0.23 nM; against RET kinase it was 0.38 nM; on KDR kinase, 44.3 nM. Also, the IC50 in experiment [1] came to 27.8 nM. Further, the “Ratio (KDR/RET)” value on KDR kinase is 118.
Regarding `COc1ncc(CN2C3CC2CN(c2ccc(-c4cc(C#CC(C)(C)O)cn5ncc(C#N)c45)cn2)C3)cc1F` [Embodiment 18, 4-(6-(6-((5-Fluoro-6-methoxypyridin-3-yl)methyl)-3,6-diazabicyclo[3.1.1]heptan-3-yl)pyridin-3-yl)-6-(3-hydroxy-3-methylbut-1-yn-1-yl)pyrazolo[1,5-a]pyridine-3-carbonitrile], the 50% inhibitory concentration (IC50) turned out to be 0.66 nM against RET M918T; 0.97 nM on KIF5B-RET; 1.8 nM against RET V804M; 0.74 nM at RET V804L; 0.31 nM on RET kinase; 23 nM against KDR kinase. For the same compound, the IC50 in experiment [1] came to 19 nM. Also, the “Ratio (KDR/RET)” value at KDR kinase turned out to be 73.
